Reference: US20240336609A1, “PYRIDAZINONE COMPOUNDS AND USES THEREOF” (Edgewise Therapeutics, Inc., priority 2021, published 2024)

Assays:
[1] = molecular target: T1, skeletal myofibrils (myosin ATPase activity) (Oryctolagus cuniculus, UniProt Q28641); assay: Skeletal Myofibril ATPase Assay (PK/LDH-coupled, NADH absorbance at 340 nm); assay type: biochemical; conditions: Rabbit Psoas myofibrils 0.25 mg/mL, ATP 0.05 mM, 1% DMSO vehicle = 100% activity
T1 construct: Rabbit Psoas Prep 11 (0.25 mg/mL)
Procedure: Overview: Myosin ATPase activity was assessed by using a coupled reaction system, in which ADP generated by the myosin ATPase function was coupled to the disappearance of NADH through the pyruvate kinase/lactate dehydrogenase (PK-LDH) system. Myosin ATPase activity produces ADP, which was used as a substrate for PK to produce pyruvate and regenerate ATP. The pyruvate was then used as a substrate by LDH to oxidize NADH to NAD+. The rate of the reaction was monitored through the time-dependent disappearance of NADH using absorbance at 340 nm. Inhibition of ATPase activity by the assayed compounds was indicated by a reduced rate of NADH loss, relative to vehicle-treated controls, over the experimental time window. To assess the selectivity of the assayed compounds for skeletal myofibrils, the compounds were counter-screened in cardiac myofibrils.
Materials: The following stock solutions and reagents were used in the Skeletal Myofibril ATPase Assay:
Stock Solutions of pCa buffer. Combine PIPES, CaCl2), and EGTA solutions with 70 mL of water. Adjust pH to 7.0 and bring final volume to 100 mL.
Buffer A & Buffer B. Butters were stored on ice until use.
Skeletal Myofibril ATPase Assay Procedure: BSA, ATP, NADH, PEP, and DTT solutions were thawed at room temperature, then transferred to ice. Pellet-frozen myofibrils (approximately twice the required volume) were transferred into a sufficiently large tube and capped. Myofibrils were thawed by rolling in a water bath for approximately 15 min at room temperature and cooled on ice. Buffers A and B were prepared by adjusting volumes as necessary for required number of wells and stored on ice. 0.5 μL of the compounds to be assayed were added into wells of a 384-well plate. Buffers A and B were mixed by inversion immediately prior to use, then 25 μL of each was dispensed using a Multidrop dispenser (Buffer A first, then Buffer B). The absorbance within the wells was measured at 340 nm, using a kinetic protocol in which the wells are read every 1.5-2 min for 1 h. The reaction rate was qualitatively assessed by subtracting the minimum absorbance value from the maximum value for each well, using either the SoftMax Pro plate reader software or a spreadsheet program such as Excel. Using GraphPad Prism 8.0, the data was normalized, with 100% activity defined as the absorbance change in the 1% DMSO vehicle wells and 0% assigned to no change in absorbance over the course of the experiment. The normalized data were fit to a variable-slope four-parameter logistic model, constraining the bottom to be 0 or greater. Compounds of Table 1 to 3 were tested and results of the assay appear in Table 4 herein. A=IC50 is less than or equal to 10 μM; B=IC50 is greater than 10 μM and less than 100 μM; C=IC50 is greater than 100 μM.

[2] = system: embryos from zebrafish model of DMD; conditions: cited from earlier work

| Molecule | IC50 [1] [µM] | protection of muscles from pathological muscle derangement [2] |
| --- | --- | --- |
| N-ethyl-2-(5-(5-morpholino- 1,2,4-thiadiazol-3-yl)-2-oxo- pyridin-1(2H)-yl)acetamide [Compound 11] | 10 to 100 |  |
| 6-(5-(5-chloropyridin-3-yl)- 1,2,4-thiadiazol-3-yl)-2-((3- methylisoxazol-5-yl)methyl)- pyridazin-3(2H)-one [Compound 28] | ≥ 100 |  |
| 6-(3-(3-chlorophenyl)-1,2,4- thiadiazol-5-yl)-2-((3-(pyridin- 3-yl)-1,2,4-oxadiazol-5-yl)- methyl)pyridazin-3(2H)-one [Compound 22] | ≥ 100 |  |
| 6-(5-(3-chlorophenyl)-1,2,4- thiadiazol-3-yl)-2-((3-methyl- isoxazol-5-yl)methyl)pyridazin- 3(2H)-one [Compound 27] | ≤ 10 |  |
| 2-(5-(5-(4-chloropyridin-2-yl)- 1,2,4-oxadiazol-3-yl)-2-oxopyri- din-1(2H)-yl)-N-ethylacetamide [Compound 51] | 10 to 100 |  |
| Cc1ccc(S(=O)(=O)NCc2ccccc2)cc1 [N-benzyl-p-tolyl-sulfonamide (BTS), N-benzyl-p-tolyl-sulfonamide] |  | protect muscles from pathological muscle derangement |
| N-ethyl-2-(6-oxo-3-(5-(5- (trifluoromethyl)pyridin-3-yl)- 1,2,4-thiadiazol-3-yl)pyridazin- 1(6H)-yl)acetamide [Compound 19] | ≥ 100 |  |
